Where a name gives a salt, the structure may show the parent alone.
Key:
hSTING = biological target: T1, hSTING (Homo sapiens, UniProt Q86WV6); test: Inhibition test of intracellular human STING (hSTING) pathways using reporter cells (HEK-Blue ISG, SEAP reporter); type: cell-based; conditions: stimulation with Compound 3 (10 nM), 21 hours, read-out: Inhibitory Activity on hSTING
T1 construct: host or cells: HEK-Blue ISG cells (HEK293-derived SEAP reporter line)
Protocol: Since STING activates the transcription factor IRF3 by ligand stimulation, the activity of STING can be evaluated by a reporter assay using a secreted alkaline phosphatase (SEAP reporter) incorporated downstream of the IRF-inducible promoter. In other words, the hSTING inhibitory activity of the test compounds was evaluated using HEK-Blue™ ISG cells (manufactured by InvivoGen, #hkb-isg-1) into which the SEAP reporter was incorporated. The activation of hSTING was performed by stimulation with the small molecule ligand, Compound 3 as described in the literature (Ramanjulu, J. M., et al., Nature. 2018, 564 (7736), 439-443).
The HEK-Blue™ ISG cells were seeded in 96-well plates and cultured overnight at 37° C. in a 5% CO2 incubator. To each well of the cell culture plates, a test compound solution adjusted to have a final concentration of 0.1 to 10 μM was added and cultured in the CO2 incubator for 1 hour. Then, the Compound 3 (final concentration of 10 nM) was added thereto and further cultured in the CO2 incubator for 21 hours. After collecting the culture supernatant from each well, the reporter activity was measured by luminous reaction of alkaline phosphatase.
(§1) Method for Evaluating Inhibitory Activity. Taking the reporter activity in the group without test compounds added and with Compound 3 added as 100% and the reporter activity in the group without test compounds added and without Compound 3 added as 0%, IC50 values were determined by regression analysis of the inhibition rate calculated from the reporter activity at each compound concentration and the test compound concentration (logarithm).
Evaluation Result. […] The inhibitory effect on the hSTING was indicated by marking an IC50 value of less than 0.1 μM with ***, that of 0.1 μM or more and less than 1 μM with **, that of 1 μM or more and less than 10 μM with *, and that of 10 μM or more with “-”.

STING = biological target: T2, STING (Homo sapiens, UniProt Q86WV6, G230A/H232R/R293Q/R71H); test: Inhibition test of human IFN-β production by cGAMP stimulation in THP-1 cells; type: cell-based; conditions: PMA-treated THP-1 cells, 2'3'-cGAMP transfection, 18 hours, ELISA of culture supernatant; read-out: Inhibitory effect on the IFN-β production
T2 construct: host or cells: THP-1 cells, PMA-treated
Protocol: The human monocytic cell line THP-1 cells were used to measure the amount of IFN-β produced when stimulated with the endogenous ligand cGAMP, thereby evaluating the inhibitory activity of the test compounds on STING activation.
After THP-1 cells (manufactured by ATCC) were seeded in 96-well plates, PMA (manufactured by Santa Cruz Biotechnology, Inc.) adjusted to a concentration after addition of 100 nM was added and cultured overnight at a 37° C. in a 5% CO2 incubator (10% FBS, 50 U/mL penicillin/50 μg/mL streptomycin-containing RPMI 1640 medium). To each well of the plate, a test compound solution adjusted to a final concentration of 0.001-1 μM of the test compound was added and cultured in the CO2 incubator for 1 hour (DMSO final concentration of 0.1%). 0.12 μg/well of 2′3′-cGAMP (manufactured by ChemieTek, #CT-CGAMP) was introduced into the cells by transfection method using Lipofectamine 2000 (manufactured by Invitrogen) and cultured in the CO2 incubator for another 18 hours. After collecting the culture supernatant from each well, the amount of human IFN-P production in the culture supernatant was measured by ELISA method using R&D human IFN-β Duoset (manufactured by R&D systems).
as §1, with “amount of human IFN-β production” for “reporter activity”, “cGAMP” for “Compound 3”
Evaluation Result. […] The inhibitory effect on the IFN-β production was indicated by marking an IC50 value of less than 0.01 μM with ***, that of 0.01 μM or more and less than 0.1 μM with **, that of 0.1 μM or more and less than 1 μM with *, and that of 1 μM or more with “-”, and NT was marked as unmeasured.

T2 sequence (Q86WV6 whole entry R71H/G230A/H232R/R293Q): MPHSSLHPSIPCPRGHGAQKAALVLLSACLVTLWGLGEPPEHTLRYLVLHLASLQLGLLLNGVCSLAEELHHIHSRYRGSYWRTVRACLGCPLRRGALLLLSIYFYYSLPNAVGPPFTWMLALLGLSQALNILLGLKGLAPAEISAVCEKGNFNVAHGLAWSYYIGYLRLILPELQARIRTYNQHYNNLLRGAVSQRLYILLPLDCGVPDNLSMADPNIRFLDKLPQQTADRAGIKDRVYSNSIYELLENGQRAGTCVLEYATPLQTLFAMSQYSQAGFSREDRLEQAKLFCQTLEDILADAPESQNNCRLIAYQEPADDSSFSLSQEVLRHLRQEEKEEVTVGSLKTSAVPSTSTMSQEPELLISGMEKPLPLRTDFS
T1 sequence (Q86WV6 whole entry H232R): as the sequence (Q86WV6 whole entry R71H/G230A/H232R/R293Q) above, with H71R, A230G, Q293R counted along it

Question: With `CNn1c(Nc2c[nH]c3ncc(Cl)cc23)nc2cc(C(F)(F)F)ccc21` [Example 27, N2-(5-chloro-1H-pyrrolo[2,3-b]pyridin-3-yl)-N1-methyl-5-(trifluoromethyl)-1H-benzo[d]imidazole-1,2-diamine hydrochloride] as the compound, how does the IC50 (hSTING) read?
Answer: 100 to 1000 nM

Question: What about the IC50 (STING) of the same compound?
Answer: 100 to 1000 nM

Question: With `CNn1c(Nc2c[nH]c3cc(F)c(C)cc23)nc2cc(C(F)(F)F)ccc21` [Example 18, N2-(6-fluoro-5-methyl-1H-indol-3-yl)-N1-methyl-5-(trifluoromethyl)-1H-benzo[d]imidazole-1,2-diamine] as the compound, how does the IC50 (hSTING) read?
Answer: < 100 nM

Question: What about the IC50 (STING) of the same compound?
Answer: < 10 nM

Question: Which IC50 (hSTING) does the source give for `CNn1c(Nc2c[nH]c3c(F)cc(F)cc23)nc2cc(C(F)(F)F)ccc21` [Example 5, N2-(5,7-difluoro-1H-indol-3-yl)-N1-methyl-5-(trifluoromethyl)-1H-benzo[d]imidazol-1,2-diamine] here?
Answer: < 100 nM

Question: What about the IC50 (STING) of the same compound?
Answer: < 10 nM

Question: Which IC50 (hSTING) does the source give for `CNn1c(Nc2c[nH]c3ccc(F)c(F)c23)nc2cc(C(F)(F)F)ccc21` [Example 3, N2-(4,5-difluoro-1H-indol-3-yl)-N1-methyl-5-(trifluoromethyl)-1H-benzo[d]imidazol-1,2-diamine Hydrochloride] here?
Answer: < 100 nM

Question: And the IC50 (STING)?
Answer: < 10 nM

Question: How did the IC50 (hSTING) turn out when `CCNn1c(Nc2c[nH]c3cc(F)c(F)cc23)nc2cc(C(F)(F)F)cc(F)c21` [Example 23, N2-(5,6-difluoro-1H-indol-3-yl)-N1-ethyl-7-fluoro-5-(trifluoromethyl)-1H-benzo[d]imidazole-1,2-diamine hydrochloride] was run?
Answer: < 100 nM

Question: What about the IC50 (STING) of the same compound?
Answer: 10 to 100 nM
